Measured values: US9084734B2, “Peptide personal care compositions and methods for their use” (Danisco US Inc., priority 2005, dated 2015)
Bridge positions count the residues as written; N and C are the ends. Peptide text beside a SMILES is read from it.

Key:
[1] = biological target: T1, Human VEGF165 (Homo sapiens, UniProt P15692); assay: BIAcore binding analysis of VEGF-binding peptides (surface plasmon resonance); details: two state reaction model with conformation change; 25° C.
T1 construct: purchased Biosource
T1 sequence (P15692 27-191 isoform P15692-4): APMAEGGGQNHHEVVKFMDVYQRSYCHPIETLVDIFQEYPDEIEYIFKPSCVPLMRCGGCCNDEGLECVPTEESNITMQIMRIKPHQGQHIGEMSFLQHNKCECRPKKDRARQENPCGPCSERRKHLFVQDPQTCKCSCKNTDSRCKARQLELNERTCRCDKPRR
Protocol: FIG. 3 provides results of a BIACORE binding analysis of VEGF binding peptides. Binding curves were obtained as described in the Examples. Data were fit to a two state reaction model with conformation change: Analyte (A) binds to ligand (B) to form complex AB.
In this Example, experiments conducted to assess the affinities of the peptides for VEGF are described. Affinities of the peptides for VEGF were measured using a BIAcore™-3000 surface plasmon resonance system (Biacore). A CM5 sensor chip was conditioned with 50 mM NaOH, 0.1% HCl, 0.1% SDS, and 0.08% H3PO4, and activated for covalent coupling of VEGF using N-ethyl-N′-(3-dimethylaminopropyl)-carbodiimide hydrochloride (EDC) and N-hydroxysuccinimide (NHS) according to the supplier's instructions (Biacore). Human VEGF165 (Biosource) was diluted to 5 μg/ml in 20 mM sodium acetate, pH 4.8 and injected at a flow rate of 2 μl/min to achieve approximately 1000 to 6000 response units (RU) of coupled protein. TNF-alpha (human TNF-alpha, Biosource, Int., Camarillo, Calif.) was similarly coupled to the CM5 sensor chip to approximately 850 to 3500 RU in the reference lane. A solution of 1 M ethanolamine was injected as a blocking agent. In some experiments, an additional solution of EDC and NHS were injected to improve baseline stability and a solution of 1 M ethanolamine injected as a blocking agent. The reference lane was activated with EDC and NHS and blocked with ethanolamine.
Peptides were synthesized using standard FMOC chemistry, purified by reverse phase HPLC to >95% purity (SynPep), and stored at 10 mg/mL in DMSO. For kinetic measurements, twofold serial diluted peptides in HBS-EP buffer, 0.01 M HEPES pH 7.4, 0.15 M NaCl, 3 mM EDTA, 0.005% Surfactant P20 (Biacore), were injected at 25° C. at a flow rate of 20 μL/min. Two-fold serial diluted DMSO samples and buffer samples were also injected for background subtraction. Kinetic parameters were calculated using BIAevaluation 3.1 software.

[2] = tested on: human umbilical vein endothelial cells (HUVEC); assay: In vitro HUVEC proliferation assay (MTS) for hVEGF inhibitory peptides; type: cell-based; details: 10 ng/ml VEGF, 48 hrs
Protocol: FIG. 12 provides a graph showing HUVEC results for designated peptides.
In this Example, experiments conducted to determine the anti-proliferative activity of anti-VEG peptides are described. The antiproliferative activity of VEGF inhibitory peptides was determined using human umbilical vein endothelial cells (HUVEC) as follows. An early passage (less than six) of HUVEC was seeded in 96-well plates at 5000 cells per well and starved for 18 hrs in 200 μl EBM medium (Cambrex) without growth factors and supplemented with 0.5% FBS, at 37° C. with 5% CO2. The medium was replaced with 180 μl of growth medium containing EBM medium with 5% fetal bovine serum and 1% DMSO. Then, 20 μl of VEGF preincubated for one hour with varying peptide concentrations (the final DMSO concentration of all the wells was 1%) were added to the wells for a final VEGF concentration of 10 ng/ml. Human VEGF antibody (R & D Systems) was used as a positive control. Cells with 0.31 to 20 ng/ml concentrations of VEGF alone in the growth medium were used to construct a standard growth curve. The cells were further incubated for 48 hrs, and the cell proliferation was measured using an MTS assay (CellTiter 96 Aqueous One Solution Cell Proliferation Assay Kit; Promega). Then, 40 μl of the MTS tetrazolium solution was added to each well and after 3 and 4 hours incubation, the plates were read at 490 nm. […]

[3] = tested on: human skin; assay: Repeat insult patch testing (RIPT) on human skin; type: in vivo; details: 0.5% (w/v) in deionized water/butylene glycol; approximately 0.2 mL; 200 human volunteers
Protocol: In this Example, experiments conducted to determine the patch test result for anti-VEGF peptides are described. Samples of the aVEGF peptide CK37281 dosed at 0.5% (w/v) were formulated in a base formulation containing deionized water/butylene glycol. Approximately 0.2 mL of the formulation was applied to 200 human volunteers in a repeated insult patch test according to procedures designed by Clinical Research Laboratories, Inc. (Piscataway, N.J.).

Question: Which ka2 [1] does the source give for `CC(C)C[C@@H]1NC(=O)[C@H](CC(N)=O)NC(=O)[C@H](Cc2ccc(O)cc2)NC(=O)[C@@H](NC(=O)[C@H](C)N)CSSC[C@@H](C(=O)NCC(=O)NCC(=O)NCC(=O)O)NC(=O)[C@H]([C@@H](C)O)NC(=O)[C@H](Cc2c[nH]c3ccccc23)NC(=O)CNC(=O)[C@H](Cc2ccc(O)cc2)NC1=O` [CK37281, YNLYGWT] here?
Answer: Its ka2 is 1.5 e-3 s^−1.

Question: What about the kd1 [1] of the same molecule?
Answer: The kd1 was 0.0122 s⁻¹.

Question: What about the IC50 [2] of the same molecule?
Answer: Its IC50 is “micromolar range”.

Question: What about the “dermal irritation or sensitization” value [3] of the same molecule?
Answer: Its value is “no dermal irritation or sensitization”.

Question: For `CC(C)C[C@@H]1NC(=O)[C@H](CC(N)=O)NC(=O)[C@@H](NC(=O)[C@H](C)N)CSSC[C@@H](C(=O)NCC(=O)NCC(=O)NCC(=O)O)NC(=O)[C@H](Cc2c[nH]c3ccccc23)NC(=O)[C@H](Cc2ccccc2)NC(=O)[C@H](Cc2c[nH]cn2)NC(=O)[C@@H]2CCCN2C(=O)[C@H](Cc2c[nH]c3ccccc23)NC1=O` [CK37283] (H-ACNLWPHFWCGGG-OH; disulfide 2-10; N-terminus and C-terminus assumed), which Kd [1] is on record?
Answer: Its Kd is 4.9 µM.

Question: And the ka2 [1]?
Answer: Its ka2 is 6.34 e-3 s^−1.

Question: What about the kd1 [1] of the same molecule?
Answer: Its kd1 is 0.318 s⁻¹.

Question: And the IC50 [2]?
Answer: Its IC50 is “micromolar range”.
